Each structure is given as a SMILES string. Bounds are passed on as bounds.

What is called IC50 is the concentration at which inhibition is half-maximal.

For one test, the target named is HCV NS5B RNA-dependent RNA polymerase (Hepatitis C virus genotype 1b, UniProt P26663). Description: In vitro RNA-dependent RNA polymerase assay (Assay 1), polyA/oligo dT, TCA precipitation. The format is biochemical.
Chain of HCV NS5B RNA-dependent RNA polymerase (P26663 2420-3010 limits assumed): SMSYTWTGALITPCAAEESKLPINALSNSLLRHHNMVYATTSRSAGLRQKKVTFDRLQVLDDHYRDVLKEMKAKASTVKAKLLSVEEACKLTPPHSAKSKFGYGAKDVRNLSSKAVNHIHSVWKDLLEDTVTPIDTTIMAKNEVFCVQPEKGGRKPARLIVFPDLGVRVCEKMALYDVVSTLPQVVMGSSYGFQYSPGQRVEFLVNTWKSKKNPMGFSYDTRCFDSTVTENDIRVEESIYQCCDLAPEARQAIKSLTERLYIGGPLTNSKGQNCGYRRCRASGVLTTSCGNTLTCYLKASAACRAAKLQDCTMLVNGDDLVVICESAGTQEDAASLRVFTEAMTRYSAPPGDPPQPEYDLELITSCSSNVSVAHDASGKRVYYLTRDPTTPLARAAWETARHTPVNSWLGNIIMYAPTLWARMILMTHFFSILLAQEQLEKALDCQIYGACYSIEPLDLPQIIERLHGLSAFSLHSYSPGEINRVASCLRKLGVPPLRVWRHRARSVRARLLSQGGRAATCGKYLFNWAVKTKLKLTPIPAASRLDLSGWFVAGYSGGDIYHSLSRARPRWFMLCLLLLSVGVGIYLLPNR
Conditions: not given
How it is done:
Purification of Recombinant NS5B Using Fast Protein Liquid Chromatography (FPLC):
Soluble NS5B protein in the S3 fraction was diluted to lower the NaCl concentration to 300 mM, then it incubated batchwise with DEAE sepharose beads (Amersham-Pharmacia) for 2 hrs at 4° C., as described by Behrens et al. (1996). Unbound material was cleared by centrifugation for 15 min at 4° C., at 25,000 rpm using a SW41 rotor (Beckman). The supernatant was further diluted to lower the NaCl concentration to 200 mM and subsequently loaded, with a flow rate of 1 ml/min, on a 5 ml HiTrap® heparin column (Amersham-Pharmacia) connected to an FPLC® system (Amersham-Pharmacia). Bound proteins were eluted in 1 ml fractions, using a continuous NaCl gradient of 0.2 to 1 M, over a 25 ml volume. NS5B-containing fractions were identified by sodium dodecyl sulfate polyacrylamide gel electrophoresis (SDS-PAGE), followed by western blotting using the anti-NS5B antiserum at a dilution of 1:2000. Positive fractions were pooled and the elution buffer was exchanged against a 50 mM NaPO4 pH 7.0, 20% glycerol, 0.5% triton X-100 and 10 mM DTT, using a PD-10 column (Amersham-Pharmacia). The sample was then loaded onto a 1 ml HiTrap® SP column (Amersham-Pharmacia), with a flow rate of 0.1 ml/min. Bound proteins were eluted using a continuous 0 to 1 M NaCl gradient over a 15 ml volume. Eluted fractions were analyzed by SDS-PAGE and western blotting. Alternatively, proteins were visualized, following SDS-PAGE, by silver staining using the Silver Stain Plus kit (BioRad) as described by the manufacturer. […]
In vitro RNA-dependent RNA Polymerase Assays Used to Evaluate Biaryl Analogues (Assay 1):
RdRp assays were conducted using the homopolymeric template/primer polyA/oligo dT. All RdRp reactions were performed in a total volume of 50 μl, and in a basic buffer consisting of 20 mM Tris-HCl pH 7.5, 1 mM DTT, 50 mM NaCl, 5 mM MgCl2, 0.5 μCi […] (3000 Ci/mmol), 15 μM cold UTP and 20 U RNasin (Promega). Standard HCV RdRp reactions contained 200 ng of purified NS5B protein. PolyA RNAs (Amersham-Pharmacia) was resuspended at 400 ng/μl. The primer oligodT15 (Canadian life technologies) was diluted to a concentration of […] (7.6 ng/μl). Templates and primers were mixed volume to volume, denatured at 95° C. for 5 min and annealed at 37° C. for 10 min. Following a two hour incubation at 22° C., reactions were stopped by the addition of 100 μg of sonicated salmon sperm DNA (Life Technologies) and 1 ml of 10% trichloroacetic acid-0.5% tetrasodium pyrophosphate (TCA-PPi). Nucleic acids were precipitated at 4° C. for 30 min after which samples were filtered on GF/C glass microfiber filters (Millipore). Membranes were subsequently washed with 25 ml of a 1% TCA-0.1% PPi solution, then air dried. Incorporated radioactivity was quantified using a liquid scintillation counter (1450-Microbeta, Wallac). Results are shown in Table 1, in the column indicated as Assay 1.
As for `O=C(O)[C@H](Cc1ccccc1)N(Cc1cccc(Br)c1)C(=O)c1ccc(Cl)cc1Br` [compound #36, (2s)-2-[(3-Bromo-benzyl)-(2-bromo-4-chloro-benzoyl)-amino]-3-phenyl-propionic acid], the IC50 is < 5 µM. The same measure, in the same setting: the same measure for `Cc1cc(Cl)ccc1C(=O)N(Cc1cccc(-c2cc3ccccc3o2)c1)[C@@H](Cc1ccccc1)C(=O)O` [compound #48, (2s)-2-[(3-Benzofuran-2-yl-benzyl)-(4-chloro-2-methyl-benzoyl)-amino]-3-phenyl-propionic acid]: < 5 µM; for `O=C(O)[C@H](Cc1ccccc1)N(Cc1cccc(F)c1)C(=O)c1ccc(Cl)cc1Cl` [compound #51, (2s)-2-[(2,4-Dichloro-benzoyl)-(3-fluoro-benzyl)-amino]-3-phenyl-propionic acid]: < 5 µM.

Staying with this test, now noted: polyA/oligo dT template/primer, 200 ng NS5B, 2 h at 22° C.; read-out: RNA pol Assay 1 IC50 (μm).
Take `Cc1ccc(C(=O)N(Cc2cccc(-c3cc4ccccc4o3)c2)[C@@H](Cc2ccccc2)C(=O)O)c(C)c1` [compound #31, (2s)-2-[(3-Benzofuran-2-yl-benzyl)-(2,4-dimethyl-benzoyl)-amino]-3-phenyl-propionic acid]: the IC50 is < 5 µM.

With `COc1cc(C)c(S(=O)(=O)N(Cc2ccc(-c3cc4ccccc4o3)cc2)[C@@H](Cc2ccc(O)cc2)C(=O)O)c(C)c1C` [compound #32, (2s)-2-[(4-Benzofuran-2-yl-benzyl)-(4-methoxy-2,3,6-trimethyl-benzenesulfonyl)-amino]-3-(4-hydroxy-phenyl)-propionic acid], the IC50 is < 5 µM. Turning to `O=C(O)[C@H](Cc1ccc(O)cc1)N(Cc1ccc(-c2cc3ccccc3o2)cc1)C(=O)c1ccc(Cl)cc1Cl` [compound #33, (2s)-2-[(4-Benzofuran-2-yl-benzyl)-(2,4-dichloro-benzoyl)-amino]-3-(4-hydroxy-phenyl)-propionic acid], the IC50 is < 5 µM.

As to `Cc1cc(Cl)ccc1C(=O)N(Cc1cccc(Br)c1)[C@@H](Cc1ccccc1)C(=O)O` [compound #34, (2s)-2-[(3-Bromo-benzyl)-(4-chloro-2-methyl-benzoyl)-amino]-3-phenyl-propionic acid], the IC50 was < 5 µM. On the same count and under the same terms, the same measure for `O=C(O)[C@H](Cc1ccccc1)N(Cc1cccc(Br)c1)C(=O)c1ccc(Cl)cc1I` [compound #35, (2s)-2-[(3-Bromo-benzyl)-(4-chloro-2-iodo-benzoyl)-amino]-3-phenyl-propionic acid]: < 5 µM. Regarding `O=C(O)[C@H](Cc1ccccc1)N(Cc1cccc(-c2cc3ccccc3o2)c1)C(=O)Cc1ccc(Cl)cc1Cl` [compound #37, (2s)-2-{(3-Benzofuran-2-yl-benzyl)-[(2,4-dichloro-phenyl)-acetyl]-amino}-3-phenyl-propionic acid], the half-maximal inhibitory concentration (IC50) was < 5 µM. Take `O=C(O)[C@H](Cc1ccccc1)N(Cc1ccc(-c2cc3ccccc3o2)cc1)c1ccc(Cl)cc1Cl` [compound #38, (2s)-2-[(4-Benzofuran-2-yl-benzyl)-(2,4-dichloro-phenyl)-amino]-3-phenyl-propionic acid]: the IC50 is < 5 µM. Still for that read-out and setting: the same measure for `O=C(O)[C@H](Cc1ccccc1)N(Cc1ccc2ccccc2c1)C(=O)c1ccc(Cl)cc1Cl` [compound #39, (2s)-2-[(2,4-Dichloro-benzoyl)-naphthalen-2-ylmethyl-amino]-3-phenyl-propionic acid]: < 5 µM. On to `O=C1c2ccccc2C(=O)c2cc(CN(C(=O)c3ccc(Cl)cc3Cl)[C@@H](Cc3ccccc3)C(=O)O)ccc21` [compound #40, (2s)-2-[(2,4-Dichloro-benzoyl)-(9,10-dioxo-9,10-dihydro-anthracen-2-ylmethyl)-amino]-3-phenyl-propionic acid], for which the IC50 was < 5 µM.

Consider `O=C(c1cccc(Cl)c1)c1cccc(CN(C(=O)c2ccc(Cl)cc2Cl)[C@@H](Cc2ccccc2)C(=O)O)c1` [compound #41, (2s)-2-[[3-(3-Chloro-benzoyl)-benzyl]-(2,4-dichloro-benzoyl)-amino]-3-phenyl-propionic acid], for which the IC50 is < 5 µM.

For the molecule `O=C(c1cccc(CN(C(=O)c2ccc(Cl)cc2Cl)[C@@H](Cc2ccccc2)C(=O)O)c1)c1ccc(F)cc1F` [compound #42, (2s)-2-{(2,4-Dichloro-benzoyl)-[3-(2,4-difluoro-benzoyl)-benzyl]-amino}-3-phenyl-propionic acid], the IC50 is < 5 µM. In the case of `Cc1onc(-c2ccccc2Cl)c1C(=O)c1cccc(CN(C(=O)c2ccc(Cl)cc2Cl)[C@@H](Cc2ccccc2)C(=O)O)c1` [compound #43, (2s)-2-[{3-[3-(2-Chloro-phenyl)-5-methyl-isoxazole-4-carbonyl]-benzyl}-(2,4-dichloro-benzoyl)-amino]-3-phenyl-propionic acid], the IC50 is < 5 µM. For the molecule `O=C(c1cccc(CN(C(=O)c2ccc(Cl)cc2Cl)[C@@H](Cc2ccccc2)C(=O)O)c1)c1ccc(Cl)cc1Cl` [compound #44, (2s)-2-{(2,4-Dichloro-benzoyl)-[3-(2,4-dichloro-benzoyl)-benzyl]-amino}-3-phenyl-propionic acid], the IC50 was < 5 µM. On the same count and under the same terms, with `O=C(O)[C@H](Cc1ccccc1)N(Cc1cccc(-c2nc3ccccc3o2)c1)C(=O)c1ccc(Cl)cc1Cl` [compound #45, (2s)-2-[(3-Benzooxazol-2-yl-benzyl)-(2,4-dichloro-benzoyl)-amino]-3-phenyl-propionic acid] the figure was < 5 µM. On the same count and under the same terms, the same measure for `CCc1cc(Cl)ccc1C(=O)N(Cc1cccc(Br)c1)[C@@H](Cc1ccccc1)C(=O)O` [compound #46, (2s)-2-[(3-Bromo-benzyl)-(4-chloro-2-ethyl-benzoyl)-amino]-3-phenyl-propionic acid]: < 5 µM; for `O=C(O)[C@H](CC1CCCCC1)N(Cc1ccc(-c2cc3ccccc3o2)cc1)C(=O)c1ccc(Cl)cc1Cl` [compound #47, (2s)-2-[(4-Benzofuran-2-yl-benzyl)-(2,4-dichloro-benzoyl)-amino]-3-cyclohexyl-propionic acid]: < 5 µM; for `O=C(O)[C@H](Cc1ccccc1)N(Cc1cccc(-c2cc3ccccc3o2)c1)C(=O)c1ccc(Cl)cc1Br` [compound #49, (2s)-2-[(3-Benzofuran-2-yl-benzyl)-(2-bromo-4-chloro-benzoyl)-amino]-3-phenyl-propionic acid]: < 5 µM.

For `C=Cc1cc(Cl)ccc1C(=O)N(Cc1cccc(Br)c1)[C@@H](Cc1ccccc1)C(=O)O` [compound #50, (2s)-2-[(3-Bromo-benzyl)-(4-chloro-2-vinyl-benzoyl)-amino]-3-phenyl-propionic acid], the IC50 is < 5 µM. `O=C(O)[C@H](Cc1ccccc1)N(Cc1cccc(Cl)c1)C(=O)c1ccc(Cl)cc1Cl` [compound #52, (2s)-2-[(3-Chloro-benzyl)-(2,4-dichloro-benzoyl)-amino]-3-phenyl-propionic acid]: the IC50 was < 5 µM. Still for that read-out and setting: with `O=C(O)[C@H](Cc1ccccc1)N(Cc1ccc(-c2cccc(Cl)c2)o1)C(=O)c1ccccc1Cl` [compound #55, (2s)-2-{(2-Chloro-benzoyl)-[5-(3-chloro-phenyl)-furan-2-ylmethyl]-amino}-3-phenyl-propionic acid] the figure was 5 to 20 µM; with `O=C(O)[C@H](Cc1ccccc1)N(Cc1ccc(-c2cccc(C(F)(F)F)c2)o1)C(=O)c1ccc(Cl)cc1Cl` [compound #56, (2s)-2-{(2,4-Dichloro-benzoyl)-[5-(3-trifluoromethyl-phenyl)-furan-2-ylmethyl]-amino}-3-phenyl-propionic acid], < 5 µM; with `O=C(O)[C@H](Cc1ccccc1)N(Cc1ccc(Br)o1)C(=O)c1ccc(Cl)cc1Cl` [compound #57, (2s)-2-[(5-Bromo-furan-2-ylmethyl)-(2,4-dichloro-benzoyl)-amino]-3-phenyl-propionic acid], 5 to 20 µM. `O=C(O)[C@H](Cc1ccccc1)N(Cc1ccc(-c2cc3ccccc3o2)o1)C(=O)c1ccc(Cl)cc1Cl` [compound #58, (2s)-2-[(5-Benzofuran-2-yl-furan-2-ylmethyl)-(2,4-dichloro-benzoyl)-amino]-3-phenyl-propionic acid]: the IC50 was < 5 µM.

Values taken from patent US20030229053A1, “Compounds and methods for the treatment or prevention of flavivirus infections” (Shire BioChem Inc., priority 2001, published 2003).
